The data set in a line: Laboratory-scale forward osmosis performance test (water flux, salt flux). The conditions noted are these: AL-DS. The procedure:
Prior to use, CTA1 and CTA2 membranes were soaked in water for 30 minutes, and other membranes were soaked in isopropanol for 30 minutes, followed by a soaking in deionized (DI) water for 10 hours.
The specially designed cross-flow membrane cell (301) has a channel (302, 303) on each side of the membrane (304), which allows the feed solution (305) and draw solution (306) to flow through separately. Each channel has dimensions of 2.8 mm, 50 mm, and 100 mm for channel height, length, and width, respectively. Co-current flow was used with a flow rate in each channel that was controlled by a peristaltic pump (307, 308) and a flow meter (309, 310). The cross-flow rates for the feed and draw solution were both maintained at […]. A heat exchanger (311) was used to maintain the feed solution (305) and draw solution (306) at 23° C. A stirrer (318) on the feed side was also used. A weighing scale (312) connected to a computer (313) was used to monitor the weight of water permeating through the membrane from the feed to the draw side, from which the water flux was calculated. A conductivity meter (314) in the feed side was used to determine the salt concentration and thus the salt flux. A draw side conductivity meter (315) also exists to take measurements on the draw side. The laboratory scale unit (300) also comprises a feed-side thermistor (316) and a draw-side thermistor (317).

The values below come from patent US20130213885A1, “FORWARD OSMOSIS SYSTEM AND PROCESS” (KING ABDULLAH UNIVERSITY OF SCIENCE AND TECHNOLOGY, priority 2012, published 2013).

Consider `[Cl-].[Na+]` [NaCl, sodium chloride], for which the “water flux relative to sodium lignin sulfonate as draw solute” value (CTA1 and CTA2 membranes, feed deionized water, different osmotic pressures) was “doubles”. The “salt flux relative to sodium lignin sulfonate as draw solute” value reads like this: (CTA1 membrane, feed deionized water) “about four times”; (CTA2 membrane, feed deionized water) “about the same range”. The “water flux, relatively stable stage” value (RO1 membrane, draw solute at 84 bar, feed DI, after first 10 minutes) was “around 4 LMH”.
